In ChEMBL document CHEMBL1150403, “Synthesis of Hsp90 inhibitor dimers as potential antitumor agents” (Bioorg Med Chem, 2008):
pIC50: −log10 of the molar value.

Tests used:
Format in all cases: functional, cell-based
MCF7 [1] = assay: Cytotoxicity against human MCF7 cells after 24 hrs; details: MCF7, 24 h
SK-BR-3 = assay: Cytotoxicity against human SKBR3 cells after 24 hrs; details: SK-BR-3, 24 h
MCF7 [2] = assay: Induction of Her2 degradation in human MCF7 cells by Western blotting analysis

| SMILES | pIC50 (MCF7 [1]) | pIC50 (SK-BR-3) | Activity (MCF7 [2]) |
| --- | --- | --- | --- |
| COc1cc(Cc2nc3c(N)ncnc3n2CCCC#CCNCCCCCCCCCCCCN)cc(OC)c1OC | 4.26 | 4.88 |  |
| CO[C@H]1/C=C/C=C(\C)C(=O)NC2=CC(=O)C(NCCCCCCCCCCCCNC3=C4C[C@@H](C)C[C@H](OC)[C@H](O)[C@@H](C)/C=C(\C)[C@H](OC(N)=O)[C@@H](OC)/C=C/C=C(\C)C(=O)NC(=CC3=O)C4=O)=C(C[C@@H](C)C[C@H](OC)[C@H](O)[C@@H](C)/C=C(\C)[C@@H]1OC(N)=O)C2=O | 6.20 | 6.53 |  |
| CO[C@H]1/C=C/C=C(\C)C(=O)NC2=CC(=O)C(NCCCCCCCCCCCCCCCCNC3=C4C[C@@H](C)C[C@H](OC)[C@H](O)[C@@H](C)/C=C(\C)[C@H](OC(N)=O)[C@@H](OC)/C=C/C=C(\C)C(=O)NC(=CC3=O)C4=O)=C(C[C@@H](C)C[C@H](OC)[C@H](O)[C@@H](C)/C=C(\C)[C@@H]1OC(N)=O)C2=O | 6.37 | 6.82 |  |
| COc1cc(Cc2nc3c(N)ncnc3n2CCCC#CCNCCCCCCCCCCCCCCCCCCCCNCC#CCCCn2c(Cc3cc(OC)c(OC)c(OC)c3)nc3c(N)ncnc32)cc(OC)c1OC | 5.84 | 5.88 |  |
| C#CCCCn1c(Cc2cc(OC)c(OC)c(OC)c2)nc2c(N)ncnc21 | 4.34 | 4.50 |  |
| COc1cc(Cc2nc3c(N)ncnc3n2CCCC#CCNCCCCNCC#CCCCn2c(Cc3cc(OC)c(OC)c(OC)c3)nc3c(N)ncnc32)cc(OC)c1OC | < 4.00 | < 4.00 |  |
| C[C@@H]1C[C@H]2O[C@@H]2/C=C\C=C\C(=O)Cc2c(Cl)c(O)cc(O)c2C(=O)O1 [RADICICOL] | 7.05 | 8.44 |  |
| COc1cc(Cc2nc3c(N)ncnc3n2CCCC#CCO)cc(OC)c1OC | < 4.00 | < 4.00 |  |
| COc1cc(Cc2nc3c(N)ncnc3n2CCCC#CCNCCCCCCCCCCCCCCCCNCC#CCCCn2c(Cc3cc(OC)c(OC)c(OC)c3)nc3c(N)ncnc32)cc(OC)c1OC | 5.80 | 5.50 |  |
| COc1cc(Cc2nc3c(N)ncnc3n2CCCC#CCNCCCCCCCCCCCCNCC#CCCCn2c(Cc3cc(OC)c(OC)c(OC)c3)nc3c(N)ncnc32)cc(OC)c1OC | 5.33 | 5.24 | Dose-dependent effect |
| CO[C@H]1/C=C/C=C(\C)C(=O)NC2=CC(=O)C(NCCCCNC3=C4C[C@@H](C)C[C@H](OC)[C@H](O)[C@@H](C)/C=C(\C)[C@H](OC(N)=O)[C@@H](OC)/C=C/C=C(\C)C(=O)NC(=CC3=O)C4=O)=C(C[C@@H](C)C[C@H](OC)[C@H](O)[C@@H](C)/C=C(\C)[C@@H]1OC(N)=O)C2=O | 5.95 | 6.59 |  |
| COc1cc(Cc2nc3c(N)ncnc3n2CCCC#CCNCCCCCCCCNCC#CCCCn2c(Cc3cc(OC)c(OC)c(OC)c3)nc3c(N)ncnc32)cc(OC)c1OC | 4.51 | 4.07 |  |
